Patent publication US20110207784A1, “OXADIAZOLE-2-OXIDES AS ANTISCHISTOSOMAL AGENTS” (THE UNITED STATES OF AMERICA, AS REPRESENTED BY THE …, priority 2008, published 2011)

Molecular target: Recombinant thioredoxin glutathione reductase (TGR) (Schistosoma mansoni, UniProt Q962Y6)
Test: biochemical
Assay type: biochemical, S. mansoni
Conditions: not given

Chain of Recombinant thioredoxin glutathione reductase (TGR) (Q962Y6 1-598): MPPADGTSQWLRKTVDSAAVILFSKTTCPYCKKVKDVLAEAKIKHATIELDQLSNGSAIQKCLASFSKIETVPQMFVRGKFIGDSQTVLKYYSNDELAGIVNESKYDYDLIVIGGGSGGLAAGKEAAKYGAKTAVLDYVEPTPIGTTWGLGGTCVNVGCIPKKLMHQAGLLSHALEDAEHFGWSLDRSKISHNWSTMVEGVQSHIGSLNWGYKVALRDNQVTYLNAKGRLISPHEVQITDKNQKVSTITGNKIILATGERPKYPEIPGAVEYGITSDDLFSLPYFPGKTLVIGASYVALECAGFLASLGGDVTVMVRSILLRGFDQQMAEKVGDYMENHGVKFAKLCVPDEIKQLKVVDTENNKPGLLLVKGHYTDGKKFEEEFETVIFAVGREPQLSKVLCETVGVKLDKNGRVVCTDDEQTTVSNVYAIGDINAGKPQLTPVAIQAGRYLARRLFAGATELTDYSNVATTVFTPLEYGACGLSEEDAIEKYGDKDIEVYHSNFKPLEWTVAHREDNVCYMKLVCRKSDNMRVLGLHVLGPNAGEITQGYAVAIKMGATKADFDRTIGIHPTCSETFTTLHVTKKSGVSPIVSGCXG

SMILES	IC50 [µM]	TGR inhibition, potency in words
N#Cc1c(-c2ccc([N+](=O)[O-])cc2)no[n+]1[O-] [Compound 25, 3-cyano-4-(4-nitrophenyl)-1,2,5-oxadiazole-2-oxide]	2.2	
Cc1c(-c2ccccc2)no[n+]1[O-] [Compound 50]		less potent than compounds 52, 51, and 56

Same assay, conditions: read-out: TGR IC50

SMILES	IC50 [µM]
N#Cc1c(-c2ccc(F)cc2)no[n+]1[O-] [Compound 21, 3-cyano-4-(4-fluorophenyl)-1,2,5-oxadiazole-2-oxide]	7.9
O=Cc1c(-c2ccccc2)no[n+]1[O-] [Compound 52]	0.11
COc1ccc(-c2no[n+]([O-])c2C#N)cc1 [Compound 26, 3-cyano-4-(4-methoxyphenyl)-1,2,5-oxadiazole-2-oxide]	10
N#Cc1c(-c2cccc(O)c2)no[n+]1[O-] [Compound 46, 3-cyano-4-(3-hydroxyphenyl)-1,2,5-oxadiazole-2-oxide]	7.1
[O-][n+]1onc(-c2ccccc2)c1CO [Compound 51]	11.2
N#Cc1c(-c2cccc([N+](=O)[O-])c2)no[n+]1[O-] [Compound 55, 3-cyano-4-(3-nitrophenyl)-1,2,5-oxadiazole-2-oxide]	2.2
N#Cc1c(-c2cccc(Cl)c2)no[n+]1[O-] [Compound 30, 4-(3-chlorophenyl)-3-cyano-1,2,5-oxadiazole-2-oxide]	3.5
N#Cc1c(-c2cccc(Br)c2)no[n+]1[O-] [Compound 31, 4-(3-bromophenyl)-3-cyano-1,2,5-oxadiazole-2-oxide]	2.8
COc1cccc(-c2no[n+]([O-])c2C#N)c1 [Compound 33, 3-cyano-4-(3-methoxyphenyl)-1,2,5-oxadiazole-2-oxide]	8.9
N#Cc1c(-c2cc(F)cc(-c3no[n+]([O-])c3C#N)c2)no[n+]1[O-] [Compound 45, 4,4′-(5-fluoro-1,3-phenylene)bis(3-cyano-1,2,5-oxadiazole-2-oxide)]	0.48
Cc1ccc(-c2no[n+]([O-])c2C#N)cc1 [Compound 27, 3-cyano-4-p-tolyl-1,2,5-oxadiazole-2-oxide]	11.2
N#Cc1c(-c2cccc(C(F)(F)F)c2)no[n+]1[O-] [Compound 32, 3-cyano-4-(3-(trifluoromethyl)phenyl)-1,2,5-oxadiazole-2-oxide]	2.5
N#Cc1c(-c2cccc(-c3no[n+]([O-])c3C#N)c2)no[n+]1[O-] [Compound 43, 4,4′-(1,3-phenylene)bis(3-cyano-1,2,5-oxadiazole-2-oxide)]	3.5
N#Cc1c(-c2ccc(Cl)cc2)no[n+]1[O-] [Compound 22, 4-(4-chlorophenyl)-3-cyano-1,2,5-oxadiazole-2-oxide]	4
COc1cc(-c2no[n+]([O-])c2C#N)cc(OC)c1OC [Compound 38, 3-cyano-4-(3,4,5-trimethoxyphenyl)-1,2,5-oxadiazole-2-oxide]	8.9
N#Cc1c(-c2ccccc2)no[n+]1[O-] [Compound 49, reference compound]	6.3
N#Cc1c(-c2ccc(O)cc2)no[n+]1[O-] [Compound 48, 3-cyano-4-(4-hydroxyphenyl)-1,2,5-oxadiazole-2-oxide]	17.9
N#Cc1c(-c2ccc(-c3ccccc3)cc2)no[n+]1[O-] [Compound 28, 4-(biphenyl-4-yl)-3-cyano-1,2,5-oxadiazole-2-oxide]	15.8
N#Cc1c(-c2ccc(Br)cc2)no[n+]1[O-] [Compound 23, 4-(4-bromophenyl)-3-cyano-1,2,5-oxadiazole-2-oxide]	3.5
N#Cc1c(-c2ccc(F)c(Br)c2)no[n+]1[O-] [Compound 35, 4-(3-bromo-4-fluorophenyl)-3-cyano-1,2,5-oxadiazole-2-oxide]	2.8
COc1ccccc1-c1no[n+]([O-])c1C#N [Compound 34, 3-cyano-4-(2-methoxyphenyl)-1,2,5-oxadiazole-2-oxide]	7.9
N#Cc1c(-c2ccc(C(F)(F)F)cc2)no[n+]1[O-] [Compound 24, 3-cyano-4-(4-(trifluoromethyl)phenyl)-1,2,5-oxadiazole-2-oxide]	7.1

System: freshly perfused S. mansoni worms
Test: ex vivo parasite killing assay
Assay type: cell-based
Conditions: not given

SMILES	worms judged to be dead [%]
N#Cc1c(-c2cc(F)cc(-c3no[n+]([O-])c3C#N)c2)no[n+]1[O-] [Compound 45, 4,4′-(5-fluoro-1,3-phenylene)bis(3-cyano-1,2,5-oxadiazole-2-oxide)]	100
N#Cc1c(-c2cccc(-c3no[n+]([O-])c3C#N)c2)no[n+]1[O-] [Compound 43, 4,4′-(1,3-phenylene)bis(3-cyano-1,2,5-oxadiazole-2-oxide)]	100

Same assay, conditions: compound at 10 μM, RPMI 1640, 10% FCS, pH 7

SMILES	Approximate ET100 (time for 100% of the worms to die) [h]
N#Cc1c(-c2ccccc2)no[n+]1[O-] [Compound 49, reference compound]	16 to 18
